Measured values taken from US20020132276A1, “FACS method for detecton of GPIIb/IIIa inhibitor dependent activators in plasma samples” (priority 1999, published 2002).
Entries after “also recorded” stand apart in the source; their conditions may differ.

Columns and labels:
platelet CD62 [1] = assay: DDPASFCA: flow cytometric detection of platelet CD62 in plasma samples with and without GPIIb/IIIa antagonist (Example 1 procedure); type: cell-based, human; design: key to Delta Med F12: median PE fluorescence with antagonist minus without antagonist
Description: 50 μL of citrated plasma from a patient eliciting a thrombocytopenic response during treatment with Compound A was added to Costar Serocluster® 96 well V-bottom microtiter plates (#3897). GPIIb/IIIa antagonist or vehicle was added (2 μL of 5μM compound A, final concentration 200 nM) was added, followed by sufficient PRP or PRP diluted into PPP to give a final platelet number of 1×10^6/well (typically 2 μL PRP). Reactions were incubated without shaking for 120 minutes. After this time, 15 μL of phycoerythrin conjugated anti-CD62 (anti-CD62-PE, Bectin Dickinson) was added. After 30 minutes the samples were diluted with 130 μL flow buffer (FB) consisting of 10 mM HEPES, 5 mM Kcl, 168 mM NaCl, 1 mM MgCl2. Samples were then transferred to 12×75 mm polystyrene and analyzed on a FACScan (Bectin Dickinson). PE fluorescence was read on FL2. Platelets were identified by their characteristic forward and side light scatter. Data from 10,000 events was obtained per sample and analyzed using Bectin Dickinson CellQuest software. The effects of GPIIb/IIIa antagonists on CD62 expression are expressed as the difference in median PE fluorescence for reactions in the presence of GPIIb/IIIa antagonist and CD62 median PE fluorescence in the absence of a GPIIb/IIIa antagonist.
The procedure was the same as in Example 1 (with modifications outlined in that example) except that where samples were limiting, only 35-40 μL of plasma was used.
Plasma from a patient who developed a thrombocytopenic episode while under therapy with Compound A was analyzed for the presence of DDPASs that might not be of immunoglobulin nature. Plasma from this previously thrombocytopenic patient (taken 17 months after the thrombocytopenia) as well as normal human plasma (negative control) and plasma from a subject known to contain DDPAS (positive control) were processed to remove immunoglobulins by passage through 1 mL protein A Hitrap® columns (Pharmacia, Inc.). The immunoglobulin-depleted plasma was free of IgG as assessed by an IgGl-specific ELISA and negative for the presence of GPIIb/IIIa antagonist-dependent anti-platelet antibodies as assessed by the DDAB ELISA assay. Plasma samples were then tested in the DDPASFCA as described in Example 1. There was no statistical difference between results for plasma samples containing immunoglobulin and those not containing immunoglobulin, Table 1.
The detection of a positive DDPAS titer in the presence of a donor plasma was assessed with dilutions of the DDPASFCA-positive plasma DPC38 into the DDPASFCA-negative plasma DPC50 using platelets from DPC50 as follows: Varying volume amounts of control plasma (DPC50), not containing DDPASs, were mixed with a the DDPAS-positive test plasma (total volume 50 μL). 1×10^6 platelets (PRP) was added. Samples were treated as in Example 1 with and without added Compound A. In the concentration range employed, DDPASs could be quantitatively measured in the test plasma. […] Thus, the signal intensity in the DDPASFCA was dose-dependent with respect to the plasma concentration for the DDPASFCA-positive subject DPC38. In contrast DDPASs were undetectable in the control plasma.
The development of DDPASs in the plasma of a patient who received Compound A and developed thrombocytopenia was analyzed using the procedure of Example 1. DDPASFCA was not determined for patient #304 prior to taking Compound A. The patient experienced thrombocytopenia after 3 days of administration of Compound A. DDPASs were subsequently detected in this patient's plasma on day 22 post-administration of Compound A and were also detected 17 months later (FIG. 2). DPC38 was used as a positive control. DPC3 was used as a negative control. […] In a prospective study, a patient with such pre-existing DDPASs could be excluded from the study, possibly preventing the clinically significant thrombocytopenic episode.

platelet CD62 [2] = assay: DDPASFCA in alternative microtiter plates (Costar Serocluster #3897 versus #3898); type: cell-based, human; conditions: Compound A 200 nM
Description: ADP and DPC38 were used as sources of DDPASs. 2 μL of citrated PRP (DPC3) was added to either Costar Serocluster® 96 well V-bottom microtiterplates (#3897) or #3898 microtiter plates (Costar Serocluster®) (rated as “hydrophilic” in nature by the manufacturer). Platelets were then treated with and without Compound A (200 nM) with the indicated concentrations of ADP. Similarly, DDPAS positive PRP (DPC38) was added to wells of both types of plates and treated with and without Compound A (200 nM). Reactions were incubated without shaking for 120 minutes. After this time, 20 μL of phycoerythrin conjugated anti-CD62 (anti-CD62-PE, Bectin Dickinson) was added. After 30 minutes the samples were diluted with 150 μL flow buffer and bound anti-CD62-PE measured as described in Example 1.
Delta SC=Delta Fluorescence for Costar Serocluster microtiter plates
Delta H=Delta Fluorescence for H3898 microtiter plates

[3] = Neg. control plasma, IgG status +
[4] = Neg. control plasma, IgG status − (protein A-depleted)
[5] = Pos. control plasma, IgG status +
[6] = Pos. control plasma, IgG status − (protein A-depleted)
[7] = TCP plasma, IgG status − (protein A-depleted plasma)
[8] = platelet donor DPC38 (DDPAS positive PRP), ADP 0 uM
[9] = platelet donor DPC50 (DDPASFCA negative), ADP 0 uM

CCCCOC(=O)N[C@@H](CNC(=O)C[C@H]1CC(c2ccc(C(=N)N)cc2)=NO1)C(=O)O [Compound A, 2(S)-[(n-butoxycarbonyl)amino]-3-[[[3-[4-(aminoiminomethyl)phenyl]isoxazolin-5(R)-yl]methylcarbonyl]amino]propionic acid]
+ compound Med F12 (platelet CD62 [1]; DPC38 0 ul, DPC50 50 ul): 12 | Delta Med F12 (platelet CD62 [1]; DPC38 0 ul, DPC50 50 ul): −8 | + compound Med F12 (platelet CD62 [1]; DPC38 8 ul, DPC50 42 ul): 64 | Delta Med F12 (platelet CD62 [1]; DPC38 8 ul, DPC50 42 ul): 20 | + compound Med F12 (platelet CD62 [1]; DPC38 10 ul, DPC50 40 ul): 73 | Delta Med F12 (platelet CD62 [1]; DPC38 10 ul, DPC50 40 ul): 17 | + compound Med F12 (platelet CD62 [1]; DPC38 12 ul, DPC50 38 ul): 88 | Delta Med F12 (platelet CD62 [1]; DPC38 12 ul, DPC50 38 ul): 17 | + compound Med F12 (platelet CD62 [1]; DPC38 17 ul, DPC50 33 ul): 135 | Delta Med F12 (platelet CD62 [1]; DPC38 17 ul, DPC50 33 ul): 21 | + compound Med F12 (platelet CD62 [1]; DPC38 25 ul, DPC50 25 ul): 271 | Delta Med F12 (platelet CD62 [1]; DPC38 25 ul, DPC50 25 ul): 79 | Delta Med F12 (platelet CD62 [1]; DPC38 50 ul, DPC50 0 ul): 304 | + compound Med F12 (platelet CD62 [1]; DPC38 50 ul, DPC50 0 ul, DPC50 platelets): 670 | Delta (median PE fluorescence with minus without compound A) (platelet CD62 [1]; [3]): −2 +/− 2 | FL2 compound A (median PE fluorescence) (platelet CD62 [1]; [3]): 16 +/− 1 | Delta (median PE fluorescence with minus without compound A) (platelet CD62 [1]; [4]): −44 +/− 15 | FL2 compound A (median PE fluorescence) (platelet CD62 [1]; [4]): 30 +/− 9 | Delta (median PE fluorescence with minus without compound A) (platelet CD62 [1]; [5]): 142 +/− 73 | FL2 compound A (median PE fluorescence) (platelet CD62 [1]; [5]): 315 +/− 27 | Delta (median PE fluorescence with minus without compound A) (platelet CD62 [1]; [6]): 122 +/− 52 | FL2 compound A (median PE fluorescence) (platelet CD62 [1]; [6]): 297 +/− 33 | Delta (median PE fluorescence with minus without compound A) (platelet CD62 [1]; TCP plasma, IgG status + (plasma)): 78 +/− 10 | FL2 compound A (median PE fluorescence) (platelet CD62 [1]; TCP plasma, IgG status + (plasma), Compound A 200 nM): 154 +/− 8 | Delta (median PE fluorescence with minus without compound A) (platelet CD62 [1]; [7]): 94 +/− 25 | FL2 compound A (median PE fluorescence) (platelet CD62 [1]; [7]): 156 +/− 20 | DDPASs in patient plasma (platelet CD62 [1]; patient #304, 17 months later): also detected | DDPASs in patient plasma (platelet CD62 [1]; patient #304, day 22 post-administration of Compound A): detected; also recorded: DDPASFCA positive | DDPASs in plasmas of DDAB ELISA positive patients (platelet CD62 [1]; pre-dose and study exit plasma, patients without clinically significant thrombocytopenia, except sample 099016): no substantial DDPASs | Delta CS (Delta Fluorescence for Costar Serocluster microtiter plates) (platelet CD62 [2]; platelet donor DPC3, ADP 0 uM): 24 | Delta H (Delta Fluorescence for H3898 microtiter plates) (platelet CD62 [2]; platelet donor DPC3, ADP 0 uM): 28 | Delta CS (Delta Fluorescence for Costar Serocluster microtiter plates) (platelet CD62 [2]; [8]): 190 | Delta H (Delta Fluorescence for H3898 microtiter plates) (platelet CD62 [2]; [8]): 338 | Delta CS (Delta Fluorescence for Costar Serocluster microtiter plates) (platelet CD62 [2]; [9]): 0 | Delta H (Delta Fluorescence for H3898 microtiter plates) (platelet CD62 [2]; [9]): −1
